{
  "source": "patent US10098895B2",
  "about": "“Treatment of symptoms related to neurodegenerative disorders through pharmacological dermal activation of cranial nerves” (GLIA, LLC, priority 2016, dated 2018)",
  "key": {"chronic ocular GVHD": {"system": "chronic ocular GVHD", "assay": "Example 4: chronic ocular GVHD, progesterone 1% to the forehead", "assay_type": "in vivo, human", "conditions": "after 4 weeks", "source_text": "A patient with chronic ocular GVHD, upon examination, had numerous ocular surface conditions as well as damaged Meibomian glands and ocular disease behind the eye. There was notable ocular surface disease including no visible production of tear film observed by Tearscope, profuse exudate in eyes, lid sticking, and recurring filamentary keratitis."}, "[1]": {"system": "ocular discomfort, tear film production, tremor", "assay": "Summary of human examples: onset, duration of efficacy and tolerance", "assay_type": "in vivo", "conditions": "progesterone USP 0.5 to 1 mg per dose, aqueous formulation, to the forehead; all human examples", "source_text": "Additional findings are that very small doses in contrast to what is required in systemic delivery are required once or twice daily, but the pharmacological agents must be applied in such a manner, and from specified formulations, so that they penetrate to the epidermis. It is unnecessary to go deeper than the epidermis, or to be absorbed into the blood circulation. Thus there are no blood brain barrier issues. […] The activation appears to be remote and not proximate innervation by the agents themselves. A further finding is that there has been no buildup of tolerance after months and years of use.\nAll human examples of neurodegenerative disorder, Parkinson's, essential tremor, herpes ophthalmicus and chronic ocular graft-versus-host disease, had ocular discomfort and signs and symptoms that were treated by low dose progesterone USP, 0.5 to 1 mg per dose, applied in an aqueous formulation to the forehead. […] The afferent nerve accessed is CN V trigeminal nerve but the efferent parasympathetic signaling was via CN VII facial nerve and a branch the greater petrosal nerve that synapses in the pterygopalatine ganglion to innervate tear film secretion. […]\nAnother surprising observation is that the duration of efficacy is at least 12 hours with the easily monitored parameters such as ocular comfort, tear film production, or tremor reduction."}, "essential tremor": {"system": "essential tremor", "assay": "Example 7: essential tremor subject with contact lens discomfort", "assay_type": "in vivo, human", "protocol": "A person developed persistent right hand tremors of a kinetic (non-resting) type that has been continuous over the past 6 years. […] This condition had not worsened over time. […] Initially, their doctor thought that these symptoms were stress related and they have been taking 2.5 mg of escitalopram for over 6 years. […] The subject was not on hormone replacement therapy or any other medication.\nConcomitantly, the subject suffered from uncomfortable eyes, with a sticky burning sensation and development of blurred vision after about 5-6 hours of contact lens wear. For the past 3 years, the subject was administered 1% progesterone gel (1 mg per day) by dermal application to the forehead once per night. The progesterone gel prolonged comfortable contact lens wear time with sustained visual acuity from 5-6 hours to greater than 15 hours. […] After 2 years of treatment, the benefits of progesterone dermal application persisted for at least 3 days without treatment. There was no effect of the progesterone on their tremor symptoms.\nAfter allowing for washout of progesterone for 3 days, they began forehead application of 0.5-0.75 mg dronabinol once daily at night.\nThe dronabinol administration regimen was altered by dividing equally the once daily dose of 0.5-0.75 mg dronabinol between the conchae of the left ear, the conchae of the right ear, and the forehead. […] Comfortable contact lens wear, with ease of insertion and removal, and visual acuity extends for 15 hours or more after dronabinol application.\nContact lens comfort wear duration was greater than 15 hours.\nIn April 2017, the subject, while still being treated with 1% progesterone applied to the forehead, instituted a once-daily low dose topical testosterone applied to the forehead and ear conchae to determine if doing so would produce a beneficial impact on further tremor reduction and in particular essential tremor triggered by caffeine consumption. […] They stopped the treatment to assess whether the tremor would return to pre-testosterone treatment levels. As of August 2017, the subject is without noticeable tremor. The caffeine trigger for tremor onset, which had been recognized throughout all treatments, has not re-appeared since the completion of the 4-week testosterone treatment. The subject continues on low-dose progesterone 1% applied daily to the forehead as the only treatment."}, "[2]": {"system": "c-Fos-positive neurons of the spinal trigeminal nucleus", "assay": "Example 10: effect of topical progesterone on neural c-Fos expression in rat brainstem", "assay_type": "in vivo", "conditions": "progesterone 1% on the forehead, less than 0.2 mg per dose, two hours later", "protocol": "A study was conducted in a rat model using the same formulation of progesterone and the same route of administration as had been used by the individuals in the preceding examples. In the study, 7 rats were treated with progesterone 1% on the forehead, estimated to be less than 0.2 mg per dose, and 6 rats received placebo. Two hours later the animals were perfused and brainstems removed. Brainstem tissues were processed for immunohistochemistry using an anti-c-Fos antibody to identify c-Fos protein in cell nuclei that can be counted to assess the activity of c-Fos-positive neurons. Two regions of the spinal trigeminal nucleus were examined: (i) rostral spinal trigeminal nucleus (Vsp) subnucleus interpolaris/subnucleus caudalis (Vi/Vc) region and (ii) caudal Vsp subnucleus caudalis/cervical 1 (Vc/C1) region. […] The rat model confirmed forehead application of progesterone signaled the neurons responsible for activation of tear film production. Various authors and experiments had confirmed the role of neurons in the rostral subnucleus interpolaris (Vi/Vc) and caudalis (Vc/C1) region of brain stem within the spinal trigeminal nucleus (Vsp), a major termination zone for trigeminal sensory fibers, to innervate the eye. When cFos genes in these neurons are activated, cFos proteins are produced that can be stained to count the number of activated neurons. (Meng et al., 1996; Meng et al., 2013)."}, "[3]": {"conditions": "progesterone 0.5% to the concha of both ears"}},
  "note": "“Also recorded” adds a separate entry of the source.",
  "data": [
    {"molecule": "CC(=O)[C@H]1CC[C@H]2[C@@H]3CCC4=CC(=O)CC[C@]4(C)[C@H]3CC[C@]12C", "note": "[progesterone]", "values": [
      {"measurement": "exudate in both eyes", "setting": "chronic ocular GVHD", "result": "noticeable decrease in exudate"},
      {"measurement": "lid sticking and friction", "setting": "chronic ocular GVHD", "result": "improvement in lid sticking and friction"},
      {"measurement": "tear film production by Tearscope", "setting": "chronic ocular GVHD", "result": "tear film production was observed"},
      {"measurement": "duration of ocular comfort per dose", "setting": "[1]", "result": "at least 12 hours"},
      {"measurement": "time to ocular comfort and tear film secretion", "setting": "[1]", "result": "within a few minutes"},
      {"measurement": "tremor symptoms", "setting": "essential tremor; 1% progesterone gel (1 mg per day) to forehead", "result": "no effect"},
      {"measurement": "comfortable contact lens wear time with sustained visual acuity", "setting": "essential tremor; 1% progesterone gel (1 mg per day) to forehead once per night, from 5-6 hours before", "result": "greater than 15 hours"},
      {"measurement": "persistence of benefits without treatment", "setting": "essential tremor; after 2 years of progesterone dermal application to forehead", "result": "at least 3 days"},
      {"measurement": "adverse events", "setting": "essential tremor; human, in vivo", "result": "no adverse events"},
      {"measurement": "routine mammography and serum hormone levels", "setting": "essential tremor; human, in vivo", "result": "normal"},
      {"measurement": "comfortable contact lens wear", "setting": "essential tremor; low dose progesterone 1% to the forehead only, daily, 12 months up to August 2017", "result": 15, "unit": "h"},
      {"measurement": "tremor on maintenance treatment", "setting": "essential tremor; maintenance dose of progesterone 1% to forehead after testosterone course", "result": "tremor-free"},
      {"measurement": "contact lens comfort wear duration", "setting": "essential tremor; [3]", "result": "greater than 15 hours"},
      {"measurement": "hand tremor", "setting": "essential tremor; [3]", "result": "subsided to the same degree as it did with dronabinol treatment"},
      {"measurement": "number of activated (c-Fos-positive) neurons in the Vc/C1 region, compared to placebo", "setting": "[2]", "result": "but not the Vc/C1 region"},
      {"measurement": "number of activated (c-Fos-positive) neurons in the Vi/Vc region, compared to placebo", "setting": "[2]; 7 rats vs 6 placebo", "result": "significantly greater number of activated neurons; also recorded: significant increase in activated neurons"}
    ]}
  ]
}
